Experimental findings from US10662445B2, “Process for the production of bio-butanol by fermentation of glycosidic waste matter” (priority 2018, dated 2020) are described below.

This data set can be described thus: Organic-solvent extraction of microbial inhibitors from an agro-waste hydrolysate mimic. It is filed as physicochemical. As to conditions: solvent bis-(2-ethylhexyl) sebacate. From the text: Media composition was designed according to the inhibitory compound limit concentration reported in the literature for bio-butanol producing solventogenic Clostridia (Baral et al. Microbial inhibitors: formation and effects on acetone-butanol-ethanol fermentation of lignocellulosic biomass. Applied microbiology and biotechnology, Vol. 98(22), 2014: 9151-9172; Qureshi et al. Production of butanol (a biofuel) from agricultural residues: Part I—Use of barley straw hydrolysate. Biomass and bioenergy, Vol. 34(4), 2010: 559-565). Different volume ratio of the hydrolysate mimic and organic solvents, such as (5:1), (3:1), (2:1), (1:1) and (1:2) (vaqueous:vorganic) were tried in order to minimize extractant expenditure. Organic and aqueous phase mixing was carried out by a propeller impeller. Rotation rate (100, 200, 250, 300 and 400 rpm) and operation-time (15, 30, 45, 60 and 90 min) were tested at room temperature (25° C.). A comparative study between settling through separating funnel vs. centrifugal force assisted separation was also made to guarantee an optimal recovery of the broth phase.
A complex mixture of several reduced sugar compounds (e.g. as glucose, fructose, and xylose) and microbial inhibitors (furfural, HMF, acetic acid, levulinic acid, vanillin, vanillic acid, feluric acid and syringaldehyde) were produced during the pretreatment step (hydrolysis). In order to analyse these compounds, liquid samples were collected and analyzed using liquid chromatography-mass spectrometry (LC-MS) and liquid chromatography-tandem mass spectrometry (LC/MS-MS) equipped with a ZORBAX Carbohydrate column (5 μm, 150×4.6 mm ID column) (Agilent Technologies, USA) with D6 glucose as the internal standard and a Biobasic-18 column (5 μm, 250×4.6 mm ID) (Agilent Technologies, USA) with phenylethanol-D5 as the internal standard. […] Methanol water (8:2) and acetonitrile water (8.5:1.5) were used to dilute the sample before inhibitor and carbohydrate analysis. […]

Setting [1] is: homogenizer rotational speed 100 rpm.
Setting [2] is: homogenizer rotational speed 200 rpm.
Where [3] appears, read: homogenizer rotational speed 250 rpm.
[4] abbreviates: homogenizer rotational speed 300 rpm.
[5] abbreviates: homogenizer rotational speed 400 rpm.

Regarding `COc1cc(C=O)ccc1O` [Vanillin, vanillin], the “Inhibitor extraction, phase separation by centrifugal force” value runs as follows: under setting [1], 95%; under setting [2], 95%; under setting [3], 97%; under setting [4], 97%; under setting [5], 96%. Further, the “Inhibitor extraction, phase separation by separating funnel” value amounted to 93% under setting [1]; 93% under setting [2]; 95% under setting [3]; 97% under setting [4]; 97% under setting [5].
Take `O=Cc1ccc(CO)o1` [HMF, hydroxymethyl furfural]: the “Inhibitor extraction, phase separation by centrifugal force” value is reported as 71% under setting [1]; 74% under setting [2]; 79% under setting [3]; 82% under setting [4]; 84% under setting [5]. Moreover, the “Inhibitor extraction, phase separation by separating funnel” value under setting [1] is 71%; the “Inhibitor extraction, phase separation by separating funnel” value under setting [2] is reported as 73%; the “Inhibitor extraction, phase separation by separating funnel” value under setting [3] is recorded as 78%; the “Inhibitor extraction, phase separation by separating funnel” value under setting [4] turned out to be 80%; the “Inhibitor extraction, phase separation by separating funnel” value under setting [5] is recorded as 80%.
For the compound `O=Cc1ccco1` [Furfural, furfural], the “Inhibitor extraction, phase separation by centrifugal force” value under setting [1] came out at 68%; the “Inhibitor extraction, phase separation by centrifugal force” value under setting [2] is 69%; the “Inhibitor extraction, phase separation by centrifugal force” value under setting [3] is on record as 78%; the “Inhibitor extraction, phase separation by centrifugal force” value under setting [4] was found to be 78%; the “Inhibitor extraction, phase separation by centrifugal force” value under setting [5] is given as 80%. For the same compound, the “Inhibitor extraction, phase separation by separating funnel” value under setting [1] was 65%; the “Inhibitor extraction, phase separation by separating funnel” value under setting [2] is given as 68%; the “Inhibitor extraction, phase separation by separating funnel” value under setting [3] is 75%; the “Inhibitor extraction, phase separation by separating funnel” value under setting [4] stood at 76%; the “Inhibitor extraction, phase separation by separating funnel” value under setting [5] was 78%.
